Data reported in PubChem BioAssay AID1963842 (Molecular Pharmacology Branch, DTP, NCI, 2024).

Test system: 677734-321-R-J1-PDC complex spheroid viability
Assay: Anticancer human tumor 677734-321-R-J1-PDC patient-derived soft tissue sarcoma cell line growth inhibition [POLQ]
Conditions: for IC50: curve of first compound; for viability, T/C: stronger effect = lower value
Experimental: Multicellular complex tumor spheroid response to Polymerase (POL) inhibitors (novobiocin, ART-558, RP6685) in combination with a variety of drugs and investigational agents in selected tumor cell lines
The POL inhibitors (novobiocin, ART-558, and RP6685) were evaluated both individually and in combination with standard of care and investigational anticancer small molecules within a complex spheroid model of solid tumors. . Complex spheroids include a stromal component modeled by human endothelial cells (HUVEC) and fibroblasts modeled by human mesenchymal stem cells (MSCs). The concentration ranges selected for each drug and investigational agent were based upon clinically achievable concentrations if the clinical Cmax of the agent was known.
Compounds. The drugs and investigational agents: novobiocin (NSC847541), ART-558 (NSC835418), RP-6685 (NSC848927), peposertib (NSC802822), ceralasertib (NSC780249), elimusertib (NSC800525), camonsertib (NSC841442), AZD-1390 (NSC803789), olaparib (NSC753686), talazoparib (NSC767125), rucaparib (NSC756644), sotorasib (NSC818433), MRTX-1133 (NSC836407), SN-38 (NSC673596), topotecan (NSC609699), epotoside (NSC141540), doxorubicin (NSC123127), gemcitabine (NSC613327), 5-fluorouracil (NSC19893), paclitaxel (NSC125973), vemurafenib (NSC761431), MSA-2 (NSC828583), SN-011 (NSC837082), adavosertib (NSC754352), prexasertib (NSC758257), carboplatin (NSC241240) and oxaliplatin (NSC266046), were obtained from the National Cancer Institute (NCI) Developmental Therapeutics Program Chemical Repository (21). The FDA-approved anticancer drug set is available from the Developmental Therapeutics Program at https://dtp.cancer.gov/organization/dscb/obtaining/. […] The stock solutions were prepared in dimethyl sulfoxide (DMSO, Sigma-Aldrich, St. Louis, MO, cat. D2650), except for the platinum compounds which were prepared in saline (Quality Biological, Gaithersburg, MD, cat. 114-055-101), at 800-fold the tested concentration and stored at -70 degrees C prior to their use. All drugs and investigational agents were tested over a range starting from a high concentration at or near the clinical Cmax and decreasing in half-log increments. If the clinical Cmax for an agent had not been determined, the highest concentration tested was 10 microM, except for SN-38, which was tested at a high concentration of 1 microM.
Cell Culture. All cells were maintained in an incubator at 37 degrees C and 5% CO2 with 95% humidity. The PDC lines were cultured according to standard operating procedures established by the NCI PDMR (https://pdmr.cancer.gov). Table 3 of the manuscript, lists the cell lines along with the number of the three cell types plated to form the mct-spheroids and media for tumor cell growth. After thawing, all PDC lines, except 997537-175-T-J1-PDC and 415267-285-R-J2-PDC, were cultured in Matrigel-coated flasks prepared with a working solution of 1X Ham's F-12 nutrient mix, without supplementation (Thermo Fisher Scientific, cat. 11765054), 100 U/mL penicillin-streptomycin (Thermo Fisher Scientific, cat. 15140122), and 2.5% Matrigel (Corning Inc., Corning, NY, cat. 354248) for the first three passages. The two PDC lines 997537-175-T-J1-PDC and 415267-285-R-J2-PDC were cultured on uncoated flasks. The 857933-349-R-J2-PDC line was cultured in 6C/Colon 1B media containing advanced DMEM/F-12 (Thermo Fisher Scientific, cat. 12634028), 10 mM HEPES (Thermo Fisher Scientific, cat. 15630080), 1X GlutaMAX supplement (Thermo Fisher Scientific, cat. 35050061), 0.1 mg/mL primocin (InvivoGen, San Diego, CA, cat. ant-pm-2), 10% defined fetal bovine serum, heat inactivated (HyClone Laboratories Inc., Logan, UT, cat. SH30070.03HI), 50% L-WRN conditioned media (ATCC, cat. CRL-3276), 1.25 mM N-Acetyl-L-cysteine (Sigma-Aldrich, cat. A9165), 10 mM nicotinamide (Sigma-Aldrich, cat. N0636), 1X B-27 supplement (Thermo Fisher Scientific, cat. 17504044), 1X N-2 supplement (Thermo Fisher Scientific, cat. […]

[1] = second compound 0.0316 µM, first compound 0.00316 µM
[2] = second compound 0.0316 µM, first compound 0.01 µM
[3] = second compound 0.0316 µM, first compound 0.0316 µM
[4] = second compound 0.0316 µM, first compound 0.1 µM
[5] = second compound 0.1 µM, first compound 0.00316 µM
[6] = second compound 0.1 µM, first compound 0.01 µM
[7] = second compound 0.1 µM, first compound 0.0316 µM
[8] = second compound 0.1 µM, first compound 0.1 µM
[9] = second compound 0.316 µM, first compound 0.00316 µM
[10] = second compound 0.316 µM, first compound 0.01 µM
[11] = second compound 0.316 µM, first compound 0.0316 µM
[12] = second compound 0.316 µM, first compound 0.1 µM
[13] = second compound 1 µM, first compound 0.00316 µM
[14] = second compound 1 µM, first compound 0.01 µM
[15] = second compound 1 µM, first compound 0.0316 µM
[16] = second compound 1 µM, first compound 0.1 µM
[17] = second compound 3.16 µM, first compound 0.00316 µM
[18] = second compound 3.16 µM, first compound 0.01 µM
[19] = second compound 3.16 µM, first compound 0.0316 µM
[20] = second compound 3.16 µM, first compound 0.1 µM
[21] = second compound 10 µM, first compound 0.00316 µM
[22] = second compound 10 µM, first compound 0.01 µM
[23] = second compound 10 µM, first compound 0.0316 µM
[24] = second compound 10 µM, first compound 0.1 µM
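Note: spheroids exposed to compounds for one week.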
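Throughout, for viability, T/C: 100% = vehicle DMSO treated spheroids.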

How did the IC50 (second compound 0.0316 µM) turn out when `CC[C@@]1(O)C(=O)OCc2c1cc1n(c2=O)Cc2cc3c(CN(C)C)c(O)ccc3nc2-1` + COC1C(OC(N)=O)C(O)C(Oc2ccc3c(O)c(NC(=O)c4ccc(O)c(CC=C(C)C)c4)c(=O)oc3c2C)OC1(C)C was run?
Its IC50 is 25.7 nM.

And the IC50 (second compound 0.1 µM)?
The IC50 was 24.6 nM.

And the IC50 (second compound 0.316 µM)?
The IC50 was 26.4 nM.

And the IC50 (second compound 1 µM)?
The IC50 was 23.6 nM.

And the IC50 (second compound 3.16 µM)?
The IC50 was 25.2 nM.

What about the IC50 (second compound 10 µM) of the same molecule?
The IC50 was 28.8 nM.

And the viability, T/C (second compound 0.0316 µM, first compound 0.000316 µM)?
The viability, T/C was 104%.

What about the viability, T/C (second compound 0.0316 µM, first compound 0.001 µM) of the same molecule?
The viability, T/C was 112%.

What about the viability, T/C [1] of the same molecule?
Its viability, T/C is 105%.

What about the viability, T/C [2] of the same molecule?
The viability, T/C was 105%.

What about the viability, T/C [3] of the same molecule?
Its viability, T/C is 37.1%.

What about the viability, T/C [4] of the same molecule?
The viability, T/C was 16.8%.

What about the viability, T/C (second compound 0.1 µM, first compound 0.000316 µM) of the same molecule?
The viability, T/C was 109%.

And the viability, T/C (second compound 0.1 µM, first compound 0.001 µM)?
The viability, T/C was 108%.

And the viability, T/C [5]?
Its viability, T/C is 109%.

What about the viability, T/C [6] of the same molecule?
Its viability, T/C is 100%.

What about the viability, T/C [7] of the same molecule?
Its viability, T/C is 33.8%.

And the viability, T/C [8]?
Its viability, T/C is 18.8%.

What about the viability, T/C (second compound 0.316 µM, first compound 0.000316 µM) of the same molecule?
Its viability, T/C is 105%.

What about the viability, T/C (second compound 0.316 µM, first compound 0.001 µM) of the same molecule?
The viability, T/C was 117%.

And the viability, T/C [9]?
Its viability, T/C is 94.2%.

And the viability, T/C [10]?
The viability, T/C was 103%.

What about the viability, T/C [11] of the same molecule?
The viability, T/C was 39.3%.

And the viability, T/C [12]?
Its viability, T/C is 16.3%.

And the viability, T/C (second compound 1 µM, first compound 0.000316 µM)?
Its viability, T/C is 113%.

And the viability, T/C (second compound 1 µM, first compound 0.001 µM)?
Its viability, T/C is 109%.

What about the viability, T/C [13] of the same molecule?
The viability, T/C was 106%.

What about the viability, T/C [14] of the same molecule?
Its viability, T/C is 106%.

What about the viability, T/C [15] of the same molecule?
The viability, T/C was 29.3%.

What about the viability, T/C [16] of the same molecule?
Its viability, T/C is 15.4%.

What about the viability, T/C (second compound 3.16 µM, first compound 0.000316 µM) of the same molecule?
Its viability, T/C is 120%.

And the viability, T/C (second compound 3.16 µM, first compound 0.001 µM)?
Its viability, T/C is 108%.

What about the viability, T/C [17] of the same molecule?
The viability, T/C was 110%.

What about the viability, T/C [18] of the same molecule?
Its viability, T/C is 98.2%.

And the viability, T/C [19]?
Its viability, T/C is 34.5%.

And the viability, T/C [20]?
Its viability, T/C is 16%.

And the viability, T/C (second compound 10 µM, first compound 0.000316 µM)?
Its viability, T/C is 109%.

What about the viability, T/C (second compound 10 µM, first compound 0.001 µM) of the same molecule?
Its viability, T/C is 106%.

And the viability, T/C [21]?
The viability, T/C was 106%.

What about the viability, T/C [22] of the same molecule?
Its viability, T/C is 98.9%.

What about the viability, T/C [23] of the same molecule?
The viability, T/C was 45.6%.

What about the viability, T/C [24] of the same molecule?
Its viability, T/C is 18.7%.

Which IC50 (second compound 0.0316 µM) does the source give for `CCc1c2c(nc3ccc(O)cc13)-c1cc3c(c(=O)n1C2)COC(=O)[C@]3(O)CC` + COC1C(OC(N)=O)C(O)C(Oc2ccc3c(O)c(NC(=O)c4ccc(O)c(CC=C(C)C)c4)c(=O)oc3c2C)OC1(C)C here?
Its IC50 is < 3.16 nM.

What about the IC50 (second compound 0.1 µM) of the same molecule?
The IC50 was < 3.16 nM.

And the IC50 (second compound 0.316 µM)?
The IC50 was < 3.16 nM.

And the IC50 (second compound 1 µM)?
Its IC50 is < 3.16 nM.

What about the IC50 (second compound 3.16 µM) of the same molecule?
Its IC50 is < 3.16 nM.

What about the IC50 (second compound 10 µM) of the same molecule?
The IC50 was < 3.16 nM.

And the viability, T/C [1]?
Its viability, T/C is 28.4%.

And the viability, T/C [2]?
Its viability, T/C is 11.8%.

What about the viability, T/C [3] of the same molecule?
Its viability, T/C is 4.37%.

And the viability, T/C [4]?
The viability, T/C was 3.1%.

And the viability, T/C (second compound 0.0316 µM, first compound 0.316 µM)?
Its viability, T/C is 2.06%.

What about the viability, T/C (second compound 0.0316 µM, first compound 1 µM) of the same molecule?
The viability, T/C was 1.39%.

And the viability, T/C [5]?
The viability, T/C was 30%.

What about the viability, T/C [6] of the same molecule?
Its viability, T/C is 13.9%.

What about the viability, T/C [7] of the same molecule?
The viability, T/C was 5.1%.

And the viability, T/C [8]?
The viability, T/C was 2.75%.

And the viability, T/C (second compound 0.1 µM, first compound 0.316 µM)?
The viability, T/C was 2%.

What about the viability, T/C (second compound 0.1 µM, first compound 1 µM) of the same molecule?
Its viability, T/C is 1.2%.

And the viability, T/C [9]?
Its viability, T/C is 28.4%.

What about the viability, T/C [10] of the same molecule?
The viability, T/C was 12%.

And the viability, T/C [11]?
The viability, T/C was 4.66%.

What about the viability, T/C [12] of the same molecule?
Its viability, T/C is 2.52%.

And the viability, T/C (second compound 0.316 µM, first compound 0.316 µM)?
The viability, T/C was 6.96%.

What about the viability, T/C (second compound 0.316 µM, first compound 1 µM) of the same molecule?
Its viability, T/C is 2.86%.

And the viability, T/C [13]?
The viability, T/C was 30.1%.

And the viability, T/C [14]?
The viability, T/C was 13.1%.

And the viability, T/C [15]?
The viability, T/C was 4.67%.

What about the viability, T/C [16] of the same molecule?
Its viability, T/C is 2.88%.

What about the viability, T/C (second compound 1 µM, first compound 0.316 µM) of the same molecule?
Its viability, T/C is 2.98%.

And the viability, T/C (second compound 1 µM, first compound 1 µM)?
The viability, T/C was 1.68%.

What about the viability, T/C [17] of the same molecule?
Its viability, T/C is 24.4%.

And the viability, T/C [18]?
The viability, T/C was 14.4%.

What about the viability, T/C [19] of the same molecule?
The viability, T/C was 6.11%.

What about the viability, T/C [20] of the same molecule?
Its viability, T/C is 3.15%.

And the viability, T/C (second compound 3.16 µM, first compound 0.316 µM)?
The viability, T/C was 2.62%.

And the viability, T/C (second compound 3.16 µM, first compound 1 µM)?
The viability, T/C was 1.16%.

What about the viability, T/C [21] of the same molecule?
The viability, T/C was 32%.

And the viability, T/C [22]?
The viability, T/C was 12.5%.

What about the viability, T/C [23] of the same molecule?
The viability, T/C was 4.86%.

And the viability, T/C [24]?
Its viability, T/C is 3.88%.

And the viability, T/C (second compound 10 µM, first compound 0.316 µM)?
The viability, T/C was 2.05%.

What about the viability, T/C (second compound 10 µM, first compound 1 µM) of the same molecule?
The viability, T/C was 1.75%.
